Assay results as given in publication PMC8008885 (Journal of Enzyme Inhibition and Medicinal Chemistry, 2021).

Test system: H3K9me3 occupancy in promoter regions
Assay: H3K9me3-ChIP sequencing of striatal tissue of YAC128 mice
Assay type: in vivo, mouse
Details: for Fold(YACEi/YAC) H3K9me3 ChIP occupancy: APQ-treated YAC vs YAC mice striatum
Procedure: ChIP for H3K9me3 binding to DNA was performed using a CHIP assay kit (Santa Cruz, Dallas, TX) as described previously[21]^,[28]. Striatal tissues from WT, vehicle treated YAC128, and APQ-treated YAC128 mice were crossed-linked with 1% formaldehyde for 20 min at room temperature. Lysates were sonicated for 30 s six times using a Bioruptor (Diagenode Inc., Denville, NJ). After centrifugation, the supernatant was diluted in CHIP dilution buffer and incubated overnight at 4 °C with anti-H3K9me3 antibody. Immune complexes were recovered by the addition of 60 µl of salmon sperm DNA/protein A agarose-50% slurry and incubation at 4 °C for 2 h with rotation. Beads were pelleted and washed with low and high salt buffer followed by LiCl buffer (x3). Immune complexes were eluted by incubation with 500 µl of fresh elution buffer (1% SDS, 0.1 M NaHCO3) and 20 µl of 5 M NaCl. DNA was cleaned by the addition of 500 mM EDTA, 1 M Tris, and proteinase K at 66 °C for 4 h. The DNA solution was extracted with a phenol/chloroform/isoamyl alcohol mixture to remove protein contaminants, followed by precipitation with 100% ethanol. After precipitation, the pellet was washed with 70% ethanol and dissolved in 20 µl DW.
The Model-based Analysis of ChIP-Seq algorithm (MACS; v. 1.4.2) was used to identify regions of H3K9me3 enrichment with the default parameters. The peaks that pass a Poisson p values threshold of 0.1 were used for further analyses[28]^,[42]. In order to obtain reliable regions of enrichment, the regions detected in more than two samples were selected and aligned to define the consensus regions using DiffBind R package (v. 2.4.8)[43]. The reads in the consensus regions were counted and DESeq2 was applied to identify DMRs[44]. The DMRs were defined as p values of ≤.05 and only DMRs in promoter region (≤3 K from transcription start site) were selected.
Among the read peaks, a total of H3K9me3-enriched 71735 sites were commonly detected using MACS in WT, vehicle-treated YAC128, and APQ-treated YAC128 mice (using DiffBind R package). The reads were re-counted in the 71,735 sites (using DESeq2) and the H3K9me3-enriched sites in promoter region (≤3 K), with p values ≤.01 were selected. Then the H3K9me3-enriched sites with 1.5-fold higher in vehicle-treated YAC128 compared to WT and 1.5-fold lower in vehicle-treated YAC128 compared to APQ-treated YAC128 were finally selected.

C=CCOc1cccc2nc(N3CCCC3)ccc12 [APQ, 5-allyloxy-2-(pyrrolidin-1-yl)quinoline]
Fold(YACEi/YAC) (H3K9me3 ChIP peak chrX_13041660_13042117, 5730405O15Rik, Promoter (<=1kb)): -3.61
Fold(YACEi/YAC) (H3K9me3 ChIP peak chrX_20364227_20364518, Rp2, Promoter (<=1kb)): -2.41
Fold(YACEi/YAC) (H3K9me3 ChIP peak chrX_20656130_20656390, Uba1, Promoter (1-2kb)): -3.37
Fold(YACEi/YAC) (H3K9me3 ChIP peak chrX_20953229_20953500, Elk1, Promoter (2-3kb)): -2.86
Fold(YACEi/YAC) (H3K9me3 ChIP peak chrX_21482622_21482887, Agtr2, Promoter (1-2kb)): -3.76
Fold(YACEi/YAC) (H3K9me3 ChIP peak chrX_51205773_51206072, Mbnl3, Promoter (<=1kb)): -4.38
Fold(YACEi/YAC) (H3K9me3 ChIP peak chrX_52575414_52575585, A630012P03Rik, Promoter (<=1kb)): -2.24
Fold(YACEi/YAC) (H3K9me3 ChIP peak chrX_53059727_53060393, C430049B03Rik, Promoter (2-3kb)): -2.78
Fold(YACEi/YAC) (H3K9me3 ChIP peak chrX_55223440_55223928, Slxl1, Promoter (2-3kb)): -3.59
Fold(YACEi/YAC) (H3K9me3 ChIP peak chrX_56214992_56215323, Gm773, Promoter (2-3kb)): -3.3
Fold(YACEi/YAC) (H3K9me3 ChIP peak chrX_56345445_56345878, Zfp449, Promoter (<=1kb)): -3.19
Fold(YACEi/YAC) (H3K9me3 ChIP peak chrX_56823574_56823879, Map7d3, Promoter (1-2kb)): -4.1
Fold(YACEi/YAC) (H3K9me3 ChIP peak chrX_57211052_57211422, Cd40lg, Promoter (<=1kb)): -3.71
Fold(YACEi/YAC) (H3K9me3 ChIP peak chrX_59587905_59588513, Fgf13, Promoter (2-3kb)): -4.9
Fold(YACEi/YAC) (H3K9me3 ChIP peak chrX_62280858_62281466, 4933402E13Rik, Promoter (2-3kb)): -2.07
Fold(YACEi/YAC) (H3K9me3 ChIP peak chrX_66814240_66814775, Mir470, Promoter (<=1kb)): -2.86
Fold(YACEi/YAC) (H3K9me3 ChIP peak chrX_68010275_68010563, Mir509, Promoter (<=1kb)): -3.86
Fold(YACEi/YAC) (H3K9me3 ChIP peak chrX_72985743_72986276, Zfp185, Promoter (1-2kb)): -2.91
Fold(YACEi/YAC) (H3K9me3 ChIP peak chrX_74085947_74086310, Mecp2, Promoter (<=1kb)): -3.17
Fold(YACEi/YAC) (H3K9me3 ChIP peak chrX_74254068_74254967, Emd, Promoter (<=1kb)): -2.9
Fold(YACEi/YAC) (H3K9me3 ChIP peak chrX_100570155_100570557, Awat1, Promoter (1-2kb)): -2.24
Fold(YACEi/YAC) (H3K9me3 ChIP peak chrX_100595739_100596091, P2ry4, Promoter (<=1kb)): -2.74
Fold(YACEi/YAC) (H3K9me3 ChIP peak chrX_103413658_103414114, Tsx, Promoter (<=1kb)): -2.74
Fold(YACEi/YAC) (H3K9me3 ChIP peak chrX_112599521_112600132, Zfp711, Promoter (<=1kb)): -3.8
Fold(YACEi/YAC) (H3K9me3 ChIP peak chrX_113186036_113186428, Chm, Promoter (<=1kb)): -3.29
Fold(YACEi/YAC) (H3K9me3 ChIP peak chrX_120315318_120315582, H2afb3, Promoter (2-3kb)): -3.46
Fold(YACEi/YAC) (H3K9me3 ChIP peak chrX_120316028_120316808, H2afb3, Promoter (2-3kb)): -3.74
Fold(YACEi/YAC) (H3K9me3 ChIP peak chrX_123101642_123102142, Cldn34c1, Promoter (1-2kb)): -3.6
Fold(YACEi/YAC) (H3K9me3 ChIP peak chrX_134057860_134058275, Cstf2, Promoter (<=1kb)): -2.34
Fold(YACEi/YAC) (H3K9me3 ChIP peak chrX_134162152_134162880, Xkrx, Promoter (<=1kb)): -2.18
Fold(YACEi/YAC) (H3K9me3 ChIP peak chrX_134757222_134757422, Mir7093, Promoter (<=1kb)): -2.8
Fold(YACEi/YAC) (H3K9me3 ChIP peak chrX_142294260_142294634, Gm5643, Promoter (2-3kb)): -2.73
Fold(YACEi/YAC) (H3K9me3 ChIP peak chrX_142390366_142390928, Acsl4, Promoter (<=1kb)): -2.3
Fold(YACEi/YAC) (H3K9me3 ChIP peak chrX_150550381_150550648, Mir3620, Promoter (2-3kb)): -2.24
Fold(YACEi/YAC) (H3K9me3 ChIP peak chrX_152231158_152231359, Kdm5c, Promoter (1-2kb)): -3.16
Fold(YACEi/YAC) (H3K9me3 ChIP peak chrX_152560343_152560717, Cldn34a, Promoter (2-3kb)): -4.14
Fold(YACEi/YAC) (H3K9me3 ChIP peak chrX_152562252_152562894, Cldn34a, Promoter (<=1kb)): -2.56
Fold(YACEi/YAC) (H3K9me3 ChIP peak chrX_153139912_153140739, Rragb, Promoter (<=1kb)): -2.81
Fold(YACEi/YAC) (H3K9me3 ChIP peak chrX_158043367_158043944, Cnksr2, Promoter (<=1kb)): -2.16
Fold(YACEi/YAC) (H3K9me3 ChIP peak chrX_159623974_159624438, Sh3kbp1, Promoter (2-3kb)): -3.85
Fold(YACEi/YAC) (H3K9me3 ChIP peak chrX_159987543_159987820, Map3k15, Promoter (<=1kb)): -3.61
Fold(YACEi/YAC) (H3K9me3 ChIP peak chrX_161115587_161115938, Scml2, Promoter (1-2kb)): -2.64
Fold(YACEi/YAC) (H3K9me3 ChIP peak chrX_162760032_162760397, Rbbp7, Promoter (<=1kb)): -3.13
Fold(YACEi/YAC) (H3K9me3 ChIP peak chrX_166236123_166236395, Gpm6b, Promoter (2-3kb)): -4.18
Fold(YACEi/YAC) (H3K9me3 ChIP peak chrX_166439947_166441101, Ofd1, Promoter (<=1kb)): -2.41
Fold(YACEi/YAC) (H3K9me3 ChIP peak chrX_166482184_166482633, Rab9, Promoter (2-3kb)): -2.11
Fold(YACEi/YAC) (H3K9me3 ChIP peak chrX_167266371_167266766, Tlr8, Promoter (2-3kb)): -3.38
Fold(YACEi/YAC) (H3K9me3 ChIP peak chrX_169321353_169321792, Hccs, Promoter (<=1kb)): -2.43
Fold(YACEi/YAC) H3K9me3 ChIP occupancy (Hsf3, Promoter (<=1kb), chrX_96456335_96456839): -2.88
Fold(YACEi/YAC) H3K9me3 ChIP occupancy (Mageb18, Promoter (1-2kb), chrX_92601496_92601857): -2.64
Fold(YACEi/YAC) H3K9me3 ChIP occupancy (Prkx, Promoter (2-3kb), chrX_77798133_77798638): -2.48
Fold(YACEi/YAC) H3K9me3 ChIP occupancy (Rbm3, Promoter (1-2kb), chrX_8147480_8147724): -2.71
Fold(YACEi/YAC) H3K9me3 ChIP occupancy (Ssxb3, Promoter (2-3kb), chrX_8592171_8592736): -2.75
Fold(YACEi/YAC) H3K9me3 ChIP occupancy (Suv39h1, Promoter (1-2kb), chrX_8076427_8076637): -2.8
Fold(YACEi/YAC) H3K9me3 ChIP occupancy (Wdr45, Promoter (1-2kb), chrX_7720185_7720585): -3.17
